Assay results as given in EP1914304A1 (priority 1998, dated 1999).

How the values were obtained:
[1] = system: E. coli KY895 harboring HSV-1 TK mutant R163P/H164Q; experiment: Colony formation on acyclovir or AZT plates (secondary screen); assay type: cell-based; settings: TK selection plates, 1 µg/mL thymidine + 1µg/mL acyclovir or 0.05 µg/mL AZT, 37°C, 16-24 hours
Protocol: (§1) […]. Mutant cultures were also spread onto duplicate TK selection and LB + carb^50 plates. One set of TK selection plates and LB + carb^50 plates were incubated at 42°C. All other plates were incubated at 37°C. After 16-24 hours the plates were scored.

[2] = system: E. coli KY895 harboring HSV-1 TK mutant F1611; experiment: as above; assay type: cell-based; settings: TK selection plates, 1 µg/mL thymidine + 1µg/mL acyclovir or 0.05 µg/mL AZT, 37°C, 16-24 hours
Protocol: as §1

[3] = system: E. coli KY895 harboring pMCC (wild-type HSV-1 TK); experiment: as above; assay type: cell-based; set-up: key: (++) indicates that the same number of colonies were observed as compared to control plates; (+) indicates that fewer (<20% those observed with pMCC) and generally smaller (~50°,% smaller diameter) colonies were observed as compared to control plates; (-) indicates that no colonies were observed; settings: TK selection plates, 1 µg/mL thymidine + 1µg/mL acyclovir or 0.05 µg/mL AZT, 37°C, 16-24 hours
Protocol: as §1

[4] = system: E. coli KY895 harboring HSV-1 TK mutant F161L; experiment: as above; assay type: cell-based; set-up: key: (++) indicates that the same number of colonies were observed as compared to control plates; (+) indicates that fewer (<20% those observed with pMCC) and generally smaller (~50°,% smaller diameter) colonies were observed as compared to control plates; (-) indicates that no colonies were observed; settings: TK selection plates, 1 µg/mL thymidine + 1µg/mL acyclovir or 0.05 µg/mL AZT, 37°C, 16-24 hours
Protocol: as §1

[5] = system: E. coli KY895 harboring HSV-1 TK mutant F1611/R163H; experiment: as above; assay type: cell-based; set-up: key: (++) indicates that the same number of colonies were observed as compared to control plates; (+) indicates that fewer (<20% those observed with pMCC) and generally smaller (~50°,% smaller diameter) colonies were observed as compared to control plates; (-) indicates that no colonies were observed; settings: TK selection plates, 1 µg/mL thymidine + 1µg/mL acyclovir or 0.05 µg/mL AZT, 37°C, 16-24 hours
Protocol: as §1

[6] = system: E. coli KY895 harboring HSV-1 TK mutant F161C; experiment: as above; assay type: cell-based; set-up: key: (++) indicates that the same number of colonies were observed as compared to control plates; (+) indicates that fewer (<20% those observed with pMCC) and generally smaller (~50°,% smaller diameter) colonies were observed as compared to control plates; (-) indicates that no colonies were observed; settings: TK selection plates, 1 µg/mL thymidine + 1µg/mL acyclovir or 0.05 µg/mL AZT, 37°C, 16-24 hours
Protocol: as §1

[7] = system: E. coli KY895 harboring HSV-1 TK mutant P155A/F161V; experiment: as above; assay type: cell-based; set-up: key: (++) indicates that the same number of colonies were observed as compared to control plates; (+) indicates that fewer (<20% those observed with pMCC) and generally smaller (~50°,% smaller diameter) colonies were observed as compared to control plates; (-) indicates that no colonies were observed; settings: TK selection plates, 1 µg/mL thymidine + 1µg/mL acyclovir or 0.05 µg/mL AZT, 37°C, 16-24 hours
Protocol: as §1

[8] = system: BHK tk- cells transfected with pREP8D7:dualGFP expressing TK mutant SR39; experiment: ACV kill curves of transfectant pools; assay type: cell-based, baby hamster; settings: Mesocricetus auratus, Table VII
Text: (§2) The seven mutants were subcloned into the mammalian expression vector, pREP8D7:dualGFP. This vector contains a constitutive metallothionin promoter, which drives the expression of green flourescent protein (GFP), and an RSV LTR promoter, which stimulated expression of the TK mutants. The vector also contains a histidinol resistance gene for selection of transformants. Purified vector DNA of these constructs was used to transfect BHK tk- cells by electroporation. The transfectants were selected by resistance to histidinol and sorted using FACS analysis for GFP expression. Pools of transfectants were then assayed for sensitivity to GCV or ACV over a range of prodrug doses. […] Table VIII illustrates the IC50 values from Rat C6 kill curves with the SR11, SR26, and SR39 mutants.

[9] = system: BHK tk- cells transfected with pREP8D7:dualGFP expressing TK mutant SR26; experiment: ACV kill curves of transfectant pools; assay type: cell-based, baby hamster; settings: Mesocricetus auratus, Table VII
Text: as §2

[10] = system: BHK tk- cells transfected with pREP8D7:dualGFP expressing wild-type TK; experiment: ACV kill curves of transfectant pools; assay type: cell-based, baby hamster; settings: Mesocricetus auratus, Table VII
Text: as §2

[11] = system: BHK tk- cells transfected with pREP8D7:dualGFP expressing TK mutant SR11; experiment: ACV kill curves of transfectant pools; assay type: cell-based, baby hamster; settings: Mesocricetus auratus, Table VII
Text: as §2

[12] = system: BHK tk- cells transfected with pREP8D7:dualGFP expressing TK mutant 75; experiment: ACV kill curves of transfectant pools; assay type: cell-based, baby hamster; settings: Mesocricetus auratus, Table VII
Text: as §2

[13] = system: rat C6 glioblastoma cells transfected with TK mutant 30, subcutaneous tumor; experiment: Mouse xenograft tumor model with prodrug treatment; assay type: in vivo, Nude mice; settings: prodrug twice a day for 5 days from day 5; Figures 32-34
Protocol: (§3) Rat C6 glioblastoma cells were transfected with the stable expression vector pREP8D7:dualGFP as described above containing various TK mutants. […] Experiments were carried out to establish prodrug dosing levels for tumor ablation and efficacy of therapy. Nude mice (JAX Labs, Bar Harbor, Maine) were injected subcutaneously with 0.5 x10^6 transfected rat C6 cells. After 5 days, prodrugs (ACV and GCV) were administered twice a day for a further 5 days. Prodrug was given at either of two concentrations (shown as mg/kg). During this period and for an additional 6 days, tumor size was monitored by caliper measurement every other day. At the end of the period, mice were sacrificed and the tumors excised and weighed.

[14] = system: rat C6 glioblastoma cells transfected with TK mutant SR39, subcutaneous tumor; experiment: Mouse xenograft tumor model with prodrug treatment; assay type: in vivo, Nude mice; settings: prodrug twice a day for 5 days from day 5; Figures 32-34
Protocol: as §3

[15] = biological target: T1, HSV-1 thymidine kinase mutant 75 (LIF-ALL library, codons 159-161 and 168-170 randomized; pET23d:75) (Human herpesvirus 1, UniProt P0DTH5); settings: Table V
T1 sequence (P0DTH5 1-376): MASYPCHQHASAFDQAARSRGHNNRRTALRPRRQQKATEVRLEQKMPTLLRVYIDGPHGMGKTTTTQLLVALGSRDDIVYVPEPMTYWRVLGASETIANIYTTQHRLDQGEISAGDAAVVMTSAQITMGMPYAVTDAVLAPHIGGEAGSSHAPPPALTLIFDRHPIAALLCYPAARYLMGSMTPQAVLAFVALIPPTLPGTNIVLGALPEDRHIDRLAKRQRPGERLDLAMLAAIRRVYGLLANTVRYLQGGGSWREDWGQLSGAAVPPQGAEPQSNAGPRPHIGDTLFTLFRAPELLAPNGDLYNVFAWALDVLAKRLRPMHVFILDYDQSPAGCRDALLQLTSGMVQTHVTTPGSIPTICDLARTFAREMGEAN
Protocol: The culture is incubated at 37°C overnight. The following day the 5ml culture is used to inoculate 1L M9ZB + cabenicillin at 20µg/ml and the culture allowed to grow at 37°C to OD600 0.1. At that point IPTG is added to 0.4mM and the culture incubated a further 3 hours. The cells are chilled on ice, pelleted by centrifugation and the pellets washed once in cell wash buffer (50mM Tris, pH 7.5, 5mM EDTA, 10% sucrose) prior to freezing the pellets at -70°C. The next day the cells are resuspended in 12ml Buffer 1 (50mM Tris, pH 7.5, 10% sucrose, 2mM DTT, 5mM EDTA, 1mM PMSF) and the volume split into two 13ml Oakridge ultracentrifuge tubes. 1ml Buffer 1 containing 3mg lysozyme is added to each tube and the tubes left on ice for 1 hr. […] The cleared supernatant is then aliquoted and frozen at -70°C.
The 1ml bed volume column is prepared by passing 10ml Buffer 1 followed by 10ml Absorption Buffer (50mM Tris, pH 7.5, 10% sucrose, 2mM DTT, 25mM MgAc2, 10mM ATP) over the column. Two ml of the cleared lysate is mixed with 2 ml of Absorption Buffer and passed through a 0.2µm filter. This mix is passed over the column 3 times. The column is washed with 5ml Absorption buffer three times and the 5ml fractions collected. […] The column is reactivated by loading on 10ml High Salt Buffer (50mM Tris, pH 7.5, 10% sucrose, 2mM DTT, 0.5M KCl) and 10ml 50mM Tris, pH 7.5. The column is stored in 50mM Tris pH 7.5 + 0.004% sodium azide. The extent of purification is monitored by Coomassie stained SDS:PAGE analysis and the concentration of purified protein determined using the BioRad Reagent (Bradford Reagent).
Km and Vmax values are determined from double reciprocal plots and kcat values are calculated using the equation Vmax = kcat [Eo] where [Eo] is the total enzyme concentration. The BioRad reagent was used to determine the total enzyme concentration of purified thymidine kinase enzymes.

Compound: Cc1cn([C@H]2C[C@H](N=[N+]=[N-])[C@@H](CO)O2)c(=O)[nH]c1=O [AZT, 3' azido-3' thymidine]
- colony formation on nucleoside analogue plates [1]: + ((+) indicates that fewer (<20% those observed with pMCC) and generally smaller (~50°,% smaller diameter) colonies were observed as compared to control plates)
- colony formation on nucleoside analogue plates [2]: + ((+) indicates that fewer (<20% those observed with pMCC) and generally smaller (~50°,% smaller diameter) colonies were observed as compared to control plates)
- colony formation on nucleoside analogue plates [3]: ++
- colony formation on nucleoside analogue plates [4]: ++
- colony formation on nucleoside analogue plates [5]: ++
- colony formation on nucleoside analogue plates [6]: -
- colony formation on nucleoside analogue plates [7]: + ((+) indicates that fewer (<20% those observed with pMCC) and generally smaller (~50°,% smaller diameter) colonies were observed as compared to control plates)

Compound: Nc1nc2c(ncn2COCCO)c(=O)[nH]1 [acyclovir]
- colony formation on nucleoside analogue plates [1]: + ((+) indicates that fewer (<20% those observed with pMCC) and generally smaller (~50°,% smaller diameter) colonies were observed as compared to control plates)
- colony formation on nucleoside analogue plates [2]: + ((+) indicates that fewer (<20% those observed with pMCC) and generally smaller (~50°,% smaller diameter) colonies were observed as compared to control plates)
- colony formation on nucleoside analogue plates [3]: ++
- colony formation on nucleoside analogue plates [4]: ++
- colony formation on nucleoside analogue plates [5]: ++
- colony formation on nucleoside analogue plates [6]: + ((+) indicates that fewer (<20% those observed with pMCC) and generally smaller (~50°,% smaller diameter) colonies were observed as compared to control plates)
- colony formation on nucleoside analogue plates [7]: ++
- IC50 [8]: 0.03 µM
- IC50 [9]: 0.035 µM
- IC50 [10]: 0.2 µM
- IC50 [11]: 0.025 µM
- IC50 [12]: 0.06 µM
- tumor reduction (tumor diameter, final tumor weight) [13]: significant tumor reduction
- tumor reduction (tumor diameter, final tumor weight) [14]: significant tumor reduction
- Km ([15]; double reciprocal plots): 23 µM
- kcat ([15]; per active site): .010 s⁻¹
